Broadly, the IC50 is the point on the concentration scale where inhibition reaches its midpoint. Low readings indicate inhibition by little substance, high ones a need for much substance.

The values that follow come from patent US11999695B2, “YAP1 inhibitors that target the interaction of YAP1 with OCT4” (H. LEE MOFFITT CANCER CENTER AND RESEARCH INSTITUTE, INC., priority 2016, dated 2024).

YAP1:OCT4, sequence (P46937 whole entry): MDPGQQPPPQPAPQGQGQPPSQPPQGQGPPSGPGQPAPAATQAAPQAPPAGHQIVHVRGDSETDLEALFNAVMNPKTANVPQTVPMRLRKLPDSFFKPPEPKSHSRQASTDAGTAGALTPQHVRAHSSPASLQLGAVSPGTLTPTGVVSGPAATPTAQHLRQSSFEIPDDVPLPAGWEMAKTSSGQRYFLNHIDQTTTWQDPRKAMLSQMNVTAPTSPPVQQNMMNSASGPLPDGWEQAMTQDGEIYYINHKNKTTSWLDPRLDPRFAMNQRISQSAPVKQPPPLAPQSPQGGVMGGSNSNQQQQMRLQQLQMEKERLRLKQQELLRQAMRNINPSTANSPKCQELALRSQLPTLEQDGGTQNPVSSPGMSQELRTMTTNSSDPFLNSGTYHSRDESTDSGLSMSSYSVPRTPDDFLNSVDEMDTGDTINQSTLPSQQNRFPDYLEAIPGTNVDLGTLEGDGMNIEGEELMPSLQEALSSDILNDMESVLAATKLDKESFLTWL
T1 sequence (P46937 whole entry): as above

The first assay addresses T1, binding of Oct4 to YAP1 (Homo sapiens, UniProt P46937).
T1 construct: Lysates were prepared from the cells, and immunoprecipitated with an antibody to OCt4; endogenous in cells; host or cells: A549 and H1650 cells
Put plainly: Immunoprecipitation-Western blot of Oct4-YAP1 binding (FIG. 15). In kind it is cell-based. To be noted: A549 cells; 5 μM; 72 hours. Here is the method: FIG. 15 is a group of gel images showing peptidomimetic compounds SR2-022, SR2-030, and SR2-033 reduced YAP1-Oct4 interaction as detected by IP-WB. An immunoprecipitation-Western blot experiment was conducted to assess if the indicated compounds could disrupt the binding of Oct4 to YAP1. IP-western blots were conducted using the protocols described in Bora-Singhal et al, 2015. Essentially, cells were treated with 5 μM of the indicated compounds for 72 hours. Lysates were prepared from the cells, and immunoprecipitated with an antibody to OCt4, or a control IgG. Lysates as well as the immunoprecipitates were resoled by a polyacrylamide gel and a western blot was conducted using an antibody to YAP1.
For orientation: In western blotting, separated proteins are transferred to a membrane and probed.
As to `O=C(CC1CCN(C(=O)CCc2ccccc2)CC1)N[C@@H](Cc1ccc(OCc2ccccc2)cc1)C(=O)O` [SR2-022, (S)-3-(4-(Benzyloxy)phenyl)-2-(2-(1-(3-phenylpropanoyl)piperidin-4-yl)acetamido)propan-oic acid], the “YAP1-Oct4 interaction detected by IP-WB” value is given as “completely abolished”.

Still in this assay, the particulars now being: H1650 cells; 5 μM; 72 hours.
With `O=C(CC1CCN(C(=O)CCc2ccccc2)CC1)N[C@@H](Cc1ccc(OCc2ccccc2)cc1)C(=O)O` [SR2-022, (S)-3-(4-(Benzyloxy)phenyl)-2-(2-(1-(3-phenylpropanoyl)piperidin-4-yl)acetamido)propan-oic acid], the “YAP1-Oct4 interaction detected by IP-WB” value is listed as “significantly reduced”.

For a further assay, the target named is YAP1:OCT4 (Homo sapiens, UniProt P46937). Put plainly: In vitro YAP1:OCT4 ELISA binding assay. To be noted: YAP1:OCT4 disruption. Here is the method:
Activities of Compounds in the In Vitro YAP1:OCT4 ELISA Binding Assay
Selected compounds were assayed in a YAP1:OCT4 binding assay.
A general note: ELISA stands for enzyme-linked immunosorbent assay.
`COC(=O)[C@H](Cc1ccc(OCc2ccccc2)cc1)NC(=O)CC1CCN(C(=O)CCc2ccccc2)CC1` [SR1-119, Methyl (S)-3-(4-(benzyloxy)phenyl)-2-(2-(1-(3-phenylpropanoyl)piperidin-4-yl)acetamido)propanoate] returned a concentration for half-maximal inhibition (IC50) of 1 to 10 µM.

`COC(=O)[C@H](Cc1ccc(OCc2ccccc2)cc1)NC(=O)CC1CCN(C(=O)CCc2ccc(C(F)(F)F)cc2)CC1` [SR2-009, Methyl (S)-3-(4-(benzyloxy)phenyl)-2-(2-(1-(3-(4-(trifluoromethyl)phenyl)propanoyl)-piperidin-4-yl)acetamido)propanoate]: the IC50 was in the range of 1 to 10 µM.

Consider `COC(=O)[C@H](Cc1ccc(OCc2ccccc2)cc1)NC(=O)CC1CCN(C(=O)CCc2ccccc2OC)CC1` [SR2-006, Methyl (S)-3-(4-(benzyloxy)phenyl)-2-(2-(1-(3-(2-methoxyphenyl)propanoyl)piperidin-4-yl)acetamido)propanoate], for which the IC50 was in the range of 1 to 10 µM.

`COC(=O)[C@H](Cc1ccc(OCc2ccccc2)cc1)NC(=O)CC1CCN(C(=O)CCc2cccc(Br)c2)CC1` [SR2-107, Methyl (S)-3-(4-(benzyloxy)phenyl)-2-(2-(1-(3-(3-bromophenyl)propanoyl)piperidin-4-yl)acetamido)propanoate] came in with an IC50 below 10 µM.

`COC(=O)[C@H](Cc1ccc(OCc2ccccc2)cc1)NC(=O)CC1CCN(C(=O)CCc2ccc(Cl)cc2)CC1` [SR2-004, Methyl (S)-3-(4-(benzyloxy)phenyl)-2-(2-(1-(3-(4-chlorophenyl)propanoyl)piperidin-4-yl)acetamido)propanoate] gave an IC50 below 10 µM.

On to `COC(=O)[C@H](Cc1ccc(OCc2ccccc2)cc1)NC(=O)CC1CCN(Cc2ccccc2)CC1` [SR1-117, Methyl (S)-3-(4-(benzyloxy)phenyl)-2-(2-(1-benzylpiperidin-4-yl)acetamido)propanoate], for which the IC50 is above 10 µM.

In turn, `O=C(CC1CCN(C(=O)CCc2ccccc2)CC1)N[C@@H](Cc1ccc(OCc2ccccc2)cc1)C(=O)O` [SR2-022, (S)-3-(4-(Benzyloxy)phenyl)-2-(2-(1-(3-phenylpropanoyl)piperidin-4-yl)acetamido)propan-oic acid] yielded an IC50 below 10 µM.

Compound `N#Cc1ccc(CCC(=O)N2CCC(CC(=O)N[C@@H](Cc3ccc(OCc4ccccc4)cc3)C(=O)O)CC2)cc1` [SR2-114, (S)-3-(4-(Benzyloxy)phenyl)-2-(2-(1-(3-(4-cyanophenyl)propanoyl)piperidin-4-yl)acetamido)propanoic acid] came in with an IC50 below 10 µM.

On to `COC(=O)[C@H](Cc1ccc(OCc2ccccc2)cc1)NC(=O)CC1CCN(C(=O)Cc2ccccc2)CC1` [SR1-122, Methyl (S)-3-(4-(benzyloxy)phenyl)-2-(2-(1-(2-phenylacetyl)piperidin-4-yl)acetamido)-propanoate], for which the concentration for half-maximal inhibition (IC50) lay within 1 to 10 µM.

Take `O=C(CC1CCN(C(=O)CCc2ccccc2)CC1)N[C@@H](Cc1ccc(OCc2ccccc2)cc1)C(=O)NCC1CC1` [SR2-019, (S)-3-(4-(benzyloxy)phenyl)-N-(cyclopropylmethyl)-2-(2-(1-(3-phenylpropanoyl)piperidin-4-yl)acetamido)propanamide]: the IC50 is 1 to 10 µM.

Compound `COC(=O)[C@H](Cc1ccc(OCc2ccccc2)cc1)NC(=O)CC1CCN(C(=O)CCc2cccc(F)c2)CC1` [SR2-010, Methyl (S)-3-(4-(benzyloxy)phenyl)-2-(2-(1-(3-(3-fluorophenyl)propanoyl)piperidin-4-yl)acetamido)propanoate] gave an IC50 below 10 µM.

As to `COC(=O)[C@H](Cc1ccc(OCc2ccccc2)cc1)NC(=O)CC1CCN(C(=O)CCc2ccc(F)cc2)CC1` [SR2-008, Methyl (S)-3-(4-(benzyloxy)phenyl)-2-(2-(1-(3-(4-fluorophenyl)propanoyl)piperidin-4-yl)acetamido)propanoate], the half-inhibitory concentration (IC50) fell in the range of 1 to 10 µM.

Consider `CCOc1ccc(CCC(=O)N2CCC(CC(=O)N[C@@H](Cc3ccc(OCc4ccccc4)cc3)C(=O)OC)CC2)cc1` [SR2-007, Methyl (S)-3-(4-(benzyloxy)phenyl)-2-(2-(1-(3-(4-ethoxyphenyl)propanoyl)piperidin-4-yl)acetamido)propanoate], for which the IC50 is 1 to 10 µM.

Compound `COC(=O)[C@H](Cc1ccc(OCc2ccccc2)cc1)NC(=O)CC1CCN(C(=O)CCc2cccc(C)c2)CC1` [SR2-036, Methyl (S)-3-(4-(benzyloxy)phenyl)-2-(2-(1-(3-(m-tolyl)propanoyl)piperidin-4-yl)acetamido)propanoate] had a concentration for half-maximal inhibition (IC50) of 1 to 10 µM.

Regarding `COC(=O)[C@H](Cc1ccc(OCc2ccccc2)cc1)NC(=O)CC1CCN(C(=O)CC(c2ccccc2)c2ccccc2)CC1` [SR2-029, Methyl (S)-3-(4-(benzyloxy)phenyl)-2-(2-(1-(3,3-diphenylpropanoyl)piperidin-4-yl)acetamido)propanoate], the IC50 is below 10 µM.

Take `CC(C)NC(=O)[C@H](Cc1ccc(OCc2ccccc2)cc1)NC(=O)CC1CCN(C(=O)OC(C)(C)C)CC1` [SR1-167, tert-butyl (S)-4-(2-((3-(4-(benzyloxy)phenyl)-1-(isopropylamino)-1-oxopropan-2-yl)amino)-2-oxoethyl)piperidine-1-carboxylate]: the IC50 fell in the range of 1 to 10 µM.

`O=C(CC1CCN(C(=O)CCc2cccc(F)c2)CC1)N[C@@H](Cc1ccc(OCc2ccccc2)cc1)C(=O)O` [SR2-117, (S)-3-(4-(Benzyloxy)phenyl)-2-(2-(1-(3-(3-fluorophenyl)propanoyl)piperidin-4-yl)acetamido)propanoic acid] gave an IC50 below 10 µM.

Compound `O=C(CC1CCN(C(=O)CCc2ccccc2)CC1)N[C@@H](Cc1ccc(OCc2ccccc2)cc1)C(=O)NC1CC1` [SR2-015, (S)-3-(4-(Benzyloxy)phenyl)-N-cyclopropyl-2-(2-(1-(3-phenylpropanoyl)piperidin-4-yl)acetamido)propanamide] displayed a 50% inhibitory concentration (IC50) of 1 to 10 µM.

Compound `O=C(CC1CCN(C(=O)CCc2ccc(F)cc2)CC1)N[C@@H](Cc1ccc(OCc2ccccc2)cc1)C(=O)O` [SR2-120, (S)-3-(4-(Benzyloxy)phenyl)-2-(2-(1-(3-(4-fluorophenyl)propanoyl)piperidin-4-yl)acetamido)propanoic acid] displayed an IC50 below 10 µM.

The compound `COC(=O)[C@H](Cc1ccc(OCc2ccccc2)cc1)NC(=O)CN1CCN(C(=O)[C@@H]2CCCN2C(=O)OCC2c3ccccc3-c3ccccc32)CC1` [SR1-094, Fmoc-Pro-piperazineacetic acid Tyr(bzl)-OMe] showed an IC50 above 10 µM.

Compound `CCOc1ccc(CCC(=O)N2CCC(CC(=O)N[C@@H](Cc3ccc(OCc4ccccc4)cc3)C(=O)O)CC2)cc1` [SR2-122, (S)-3-(4-(Benzyloxy)phenyl)-2-(2-(1-(3-(4-ethoxyphenyl)propanoyl)piperidin-4-yl)acetamido)propanoic acid] displayed an IC50 below 10 µM.

Turning to `O=C(CC1CCN(C(=O)CCc2ccc(Cl)c(Cl)c2)CC1)N[C@@H](Cc1ccc(OCc2ccccc2)cc1)C(=O)O` [SR2-113, (S)-3-(4-(Benzyloxy)phenyl)-2-(2-(1-(3-(3,4-dichlorophenyl)propanoyl)piperidin-4-yl)acetamido)propanoic acid], the half-maximal inhibitory concentration (IC50) is below 10 µM.

In turn, `COC(=O)[C@H](Cc1ccc(OCc2ccccc2)cc1)NC(=O)CC1CCN(C(=O)c2ccccc2)CC1` [SR1-118, Methyl (S)-2-(2-(1-benzoylpiperidin-4-yl)acetamido)-3-(4-(benzyloxy)phenyl)propanoate] displayed a concentration for half-maximal inhibition (IC50) of 1 to 10 µM.

Take `O=C(CC1CCN(C(=O)CCc2ccccc2)CC1)N[C@@H](Cc1ccc(OCc2ccccc2)cc1)C(=O)NC1CCC1` [SR2-016, (S)-3-(4-(Benzyloxy)phenyl)-N-cyclobutyl-2-(2-(1-(3-phenylpropanoyl)piperidin-4-yl)acetamido)propanamide]: the IC50 was 1 to 10 µM.

As for `COC(=O)[C@H](Cc1ccc(OCc2ccccc2)cc1)NC(=O)CN1CCN(C(=O)OC(C)(C)C)CC1` [SR1-090, tert-Butyl (S)-4-(2-((3-(4-(benzyloxy)phenyl)-1-methoxy-1-oxopropan-2-yl)amino)-2-oxoethyl)piperazine-1-carboxylate], the half-inhibitory concentration (IC50) was above 10 µM.

In the case of `COC(=O)[C@H](Cc1ccc(OCc2ccccc2)cc1)NC(=O)CC1CCN(C(=O)OC(C)(C)C)CC1` [SR1-083, tert-Butyl (S)-4-(2-((3-(4-(benzyloxy)phenyl)-1-methoxy-1-oxopropan-2-yl)amino)-2-oxoethyl)piperidine-1-carboxylate], the IC50 lay within 1 to 10 µM.

In turn, `CC(C)(C)OC(=O)N1CCC(CC(=O)N[C@@H](Cc2ccc(OCc3ccccc3)cc2)C(=O)O)CC1` [SR1-152, (S)-3-(4-(benzyloxy)phenyl)-2-(2-(1-(tert-butoxycarbonyl)piperidin-4-yl)acetamido)-propanoic acid] registered an IC50 of 1 to 10 µM.

As to `COC(=O)[C@H](Cc1ccc(OCc2ccccc2)cc1)NC(=O)CC1CCN(C(=O)CCc2cc(Cl)cc(Cl)c2)CC1` [SR2-106, Methyl (S)-3-(4-(benzyloxy)phenyl)-2-(2-(1-(3-(3,5-dichlorophenyl)propanoyl)piperidin-4-yl)acetamido)propanoate], the IC50 was below 10 µM.

With `COC(=O)[C@H](Cc1ccc(OCc2ccccc2)cc1)NC(=O)CC1CCN(C(=O)CCc2cccc(Cl)c2)CC1` [SR2-032, Methyl (S)-3-(4-(benzyloxy)phenyl)-2-(2-(1-(3-(3-chlorophenyl)propanoyl)piperidin-4-yl)acetamido)propanoate], the half-maximal inhibitory concentration (IC50) was below 10 µM.
